The source of these data is PMC8151276, “An Integrated Approach toward NanoBRET Tracers for Analysis of GPCR Ligand Engagement” (Molecules, 2021).

Structures are written as SMILES.

The target of one assay is T1, NPY4R (Homo sapiens, UniProt P50391).
T1 construct: purchased Promega (in-house HiBiT-GPCR construct library, NanoBRET)
Description: NanoBRET screen HiBiT-NPY4R in HEK293. Format: binding. To be noted: NPY4R. How it is done: (§1) Each tracer candidate was screened across the entire library of HiBiT-GPCR constructs using NanoBRET as the detection modality. As depicted in Figure 4A, the specificity of interactions was evaluated through decrease in BRET due to competitive displacement of a bound tracer by excess parental compound. Each tracer was analyzed for binding to each HiBiT-GPCR fusion in the absence and in the presence of competing parental compound. Briefly, HEK293 cells were transfected with HiBiT-GPCR constructs diluted into promoterless DNA to reduce expression and maximize translocation to the cell surface. Each tracer candidate was then screened at concentrations of 1 μM and 0.1 μM across cells expressing these fusions. Cells were treated for 1.5 h with tracer either alone or in the presence of 20 μM competing parental compound (i.e., control). BRET was measured upon addition of purified LgBiT and subsequent complementation with HiBiT genetically fused to a GPCR. The specificity of interactions was assessed through a decrease in BRET signal due to competitive displacement of the bound tracer. To further gauge the robustness of these interactions, the fold response over the control (i.e., BRETtracer/BRETcontrol) was calculated. We chose a 1.5-fold response, which translates to ≥7-fold signal over noise as the minimal threshold required to score an interaction as positive.
(§2) HiBiT-GPCR DNA constructs were diluted in 10 mM Tris pH 8 to a final concentration of 0.01 μg/μL, arrayed in 96-well plates and stored at −20 °C. For transfection, HEK293 cells were suspended in Opti-MEM (without phenol red) supplemented with 2% fetal bovine serum (Seradigm) and 100 units/mL penicillin–streptomycin (Gibco) at a final concentration of 220,000 cells/mL and dispensed into white 96-well plates at 90 μL/well. Subsequent transfections and screens were carried using an Agilent Bravo Automated Liquid Handling Platform. First, the 96-well HiBiT DNA arrays were diluted 25-fold in Opti-MEM (without serum or phenol red) to a final concentration of 0.0004 μg/μL and 20 μL of the diluted DNAs were transferred into new 96-well plates. Next, promoterless carrier DNA (1 μg/μL) was diluted 25-fold (0.04 μg/μL) and then dispensed into the diluted arrays at 20 μL/well. Following brief mixing, Viafect transfection reagent (Promega) diluted 16-fold into Opti-MEM was dispensed into the plates at 40 μL/well. After mixing by pipetting, plates were incubated for 10 min on the pipetting station deck. The DNA-transfection reagent complexes were then added to plates containing cells. To facilitate the screen, 10 μL of DNA-transfection reagent complexes were added in duplicates to the top 4 and bottom 4 rows, resulting in two identical 48-well arrays per plate. Plates with transfected cells were incubated for 18–20 h at 37 °C/5% CO2. A screen of each tracer across the entire library using two different concentrations requires duplicate plates of transfected cells. Depending on the number of tracers being screened, transfections can be scaled up using the same ratios. The next day, for each tracer, four 20× screening solutions in tracer dilution buffer (Promega) were prepared: two duplicates at final concentration of 20 μM and two duplicates at a final concentration of 2 μM. […] The four resulting solutions were diluted 4-fold in Opti-MEM without serum or phenol red to generate 5× solutions (5 µM and 0.5 µM tracer +/− 100 μM competing compound). To screen the library, a BioTek MultiFlo FX liquid dispenser was used to dispense 22.5 µL of tracer solution to the top 4 rows and 22.5 µL tracer + competing compound solution to the 4 bottom rows. Plates were briefly mixed on an orbital shaker and incubated for 1.5 h at room temperature. […] Plates were briefly mixed on an orbital shaker and incubated for 15 min to allow complementation.
For orientation: BRET reads energy transfer from a luciferase to a nearby fluorophore.

A further assay concerns the target T2, MTNR1A (Homo sapiens, UniProt P48039).
T2 construct: purchased Promega (in-house HiBiT-GPCR construct library, NanoBRET)
Nature of the assay: NanoBRET screen HiBiT-MTNR1A in HEK293. It counts as binding. To be noted: MTNR1A. How it is done:
as §1, §2

T2 sequence (P48039 whole entry): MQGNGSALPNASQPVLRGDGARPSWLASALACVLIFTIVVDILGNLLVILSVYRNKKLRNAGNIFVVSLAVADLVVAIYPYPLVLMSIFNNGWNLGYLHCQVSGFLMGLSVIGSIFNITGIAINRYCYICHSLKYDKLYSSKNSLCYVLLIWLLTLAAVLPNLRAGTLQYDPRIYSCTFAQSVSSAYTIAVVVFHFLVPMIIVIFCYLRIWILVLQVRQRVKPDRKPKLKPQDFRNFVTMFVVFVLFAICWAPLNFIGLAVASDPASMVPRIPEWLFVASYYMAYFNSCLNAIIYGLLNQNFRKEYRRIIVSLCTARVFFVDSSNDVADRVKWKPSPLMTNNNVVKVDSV
T1 sequence (P50391 whole entry): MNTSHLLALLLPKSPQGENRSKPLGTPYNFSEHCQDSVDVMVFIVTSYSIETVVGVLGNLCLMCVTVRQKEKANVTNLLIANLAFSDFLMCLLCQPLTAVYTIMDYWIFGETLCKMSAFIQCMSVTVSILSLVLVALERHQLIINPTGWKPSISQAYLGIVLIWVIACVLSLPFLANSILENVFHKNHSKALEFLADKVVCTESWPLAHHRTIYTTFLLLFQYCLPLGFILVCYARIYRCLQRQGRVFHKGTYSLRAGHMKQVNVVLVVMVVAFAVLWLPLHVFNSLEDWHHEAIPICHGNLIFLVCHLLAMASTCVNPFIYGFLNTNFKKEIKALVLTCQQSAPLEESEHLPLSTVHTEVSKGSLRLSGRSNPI

For the compound `CCOC(=O)c1cc(C#N)c(N2CCC(C(=O)NS(=O)(=O)Cc3ccccc3/C=C/C(=O)NCCNC(=O)CCc3ccc4n3[B-](F)(F)[N+]3=C(c5ccc[nH]5)C=CC3=C4)CC2)nc1C` [AZD1283-1-NB590], the “NanoBRET Fold Response” value on NPY4R (0.1μM) worked out at 1.02; at NPY4R (1μM), 1.03; at MTNR1A (0.1μM), 1.00; on MTNR1A (1μM), 1.00.
